Reference: patent publication US9950007B2, “Neuronal protection by cerium oxide nanoparticles” (UNIVERSITY OF CENTRAL FLORIDA RESEARCH FOUNDATION, INC., priority 2011, dated 2018)
Entries after “also recorded” stand apart in the source; their conditions may differ.

Columns and labels:
[1] = ONOO^−-mediated APF oxidation in vitro (fluorescence spectroscopy); conditions: ONOO^− 20 μM, fluorescence 515 nm (ex. 490 nm)
Method: To obtain further insight into the ONOO^− scavenging abilities of CeO2 NPs, the yield of oxidized APF was followed by fluorescent spectroscopy using the oxidizable probe, 3′-(p-aminophenyl) fluorescein (APF) as an indicator (FIG. 2B). APF is an aromatic amino-fluorescein derivative that has little intrinsic fluorescence but undergoes oxidation by only hydroxyl radical, hypochlorate ion, and certain peroxidase intermediates such as ONOO^−, but is inert to NO., O2^⋅− and H2O2 (40).
ONOO^− (20 μM) was added to APF along with varying amounts CeO2 NPs. Glutathione (Fisher, Fair Lawn, N.J.) and uric acid (Avocado, Research Chemicals, Ltd.) known scavengers of ONOO^−, were used as positive controls. Fluorescence at 515 nm (ex. 490 nm) was measured using a Varian Cary Eclipse fluorescence spectrophotometer (Palo Alto, Calif.).

[2] = Decay of ONOO^− followed at 302 nm by UV-visible spectroscopy
Method: The decay of ONOO^− was followed in the absence and presence of CeO2 NPs (FIG. 2A and Supplementary FIG. 3: Effect of CeO2 NPs on the rate of decay of ONOO— in vitro varying pH. ONOO— (25 μM) was added at various pH's alone and in the presence of CeO2 NPs (100 μM), SiO2 NPs (100 μM), glutathione (GSH) (0.5 mM). (A) Peroxynitrite absorbance followed at 302 nm in 100 mM sodium phosphate buffer at pH 8.6. (N=4). GSH, known general scavenger and SiO2 NPs were added as positive and negative controls, respectively. Rate of ONOO—(black traces) decomposition was increased with CeO2 NPs (blue traces) in a similar manner of GSH (red traces). Rate of decomposition was not affected by presence of SiO2 NPs (green traces). B) 100 mM sodium phosphate buffer at pH 9.5. (N=3). Rate of ONOO—(black traces) decomposition was increased with CeO2 NPs (blue traces) in a similar manner of GSH (red traces). Absorbance was normalized by subtracting the final absorbance from initial absorbance and dividing by the amplitude. As stock solutions of ONOO— contain 0.3 M NaOH, control incubations were performed with equivalent amounts of NaOH. All in vitro experiments were performed using phosphate buffers containing 1 μM DPTA.). The in vitro assays were repeated using various phosphate buffers while varying the pH's. Since carbon dioxide is known to enhance the rate of ONOO^− decomposition (38), the change in absorbance at 302 nm was followed in potassium phosphate buffer (pH 8.0), which was degassed by argon. […] This change of absorbance in response to addition of CeO2 NPs in these studies also mimics the scavenging seen with glutathione, a known antioxidant that protects cells from free radicals and peroxides (39). […]
UV-visible spectroscopy was used to measure decomposition of ONOO^− in the presence and absence of CeO2 NPs. […] Each sample was analyzed for a total of 600 seconds with a cycle time of 0.5 seconds at a wavelength of 302 nm using buffer containing 100 mM sodium phosphate buffer (pH 9.5-8.0) and 1 μM diethylenetriaminepentaacetic acid (DPTA) with or without CeO2 NPs. […]

[3] = tested on: DRP1 phosphorylation at S616; experiment: Western blot of p-DRP1 S616 in neurons; assay type: cell-based, rat; conditions: preaggregated Aβ 25-35 10 μM, 6 h; nanoceria 100 nM or NAC 50 μM, 3 h pretreatment
Method: To measure the levels of p-DRP1 S616, neurons were lysed in buffer containing 50 mM Tris-Cl, pH 7.0, 150 mM NaCl, 1 mM MgCl2, 1 mM NaF, 1 mM NaVO4, 1% NP40, 10% glycerol and complete Protease Inhibitor Cocktail Tablets (Roche Applied Science, US). Membranes were blocked with 5% nonfat milk in TBS (pH 8.0) with 0.05% Tween20 for 3 h at room temperature (RT) and were incubated with primary rabbit polyclonal antibodies for p-DRP1 S616 (Cell Signaling) (1:1000) overnight at 4° C. The membranes were then washed four times (5 min) with TBS (0.05% Tween) and incubated for 2 h at room temperature with anti-rabbit horseradish peroxidase-conjugated secondary antibodies (GE Healthcare)(1:15,000) in blocking solution. After 4 washes (5 min) of TBS (0.05% Tween), immunocomplexes were then detected using the Super-Signal West-Dura or Femto chemiluminescent substrates (Pierce, Thermoscientific, Rockford, Ill.). For re-probing the membranes were stripped with Restore Western Blot Stripping Buffer (Thermo-Scientific) according to the manufacturer and incubated with mouse monoclonal antibodies for DRP1 (BD Biosciences, clone 8/DLP1) (1:1000) antibody or with polyclonal rabbit antibodies for β-actin (Cell Signaling) (1:1000).

cortical neurons = experiment: Scoring for neuronal cell death under nitrosative stressors; assay type: cell-based, rat; conditions: oligomerized Aβ 25-35 10 μM, 6 h; nanoceria 100 nM or NAC 50 μM, 3 h pretreatment
Method: To assess the neuronal protection capabilities of CeO2 NPs, pure cortical neuronal cultures transfected with DsRed2-Mito were pretreated with CeO2 NPs (100 nM) and subjected to various treatments known to increase RNS. […] Cell death was evaluated by condensed nuclei accompanied by shrunken soma and mitochondrial fragmentation (FIG. 4A center panel).
Cultures were either transfected with DsRed2-Mito on day 5 using LipoFectamine2000® or immunostained for microtubule-associated protein 2 (MAP2) for visualization of processes. Experiments were performed after 11-14 days in vitro (DIV) with 3-NP, glutamate or NMDA. SNOC treated cultures were performed after 8 DIV. Neurons were pretreated with CeO2 NPs for various time points, 3 h, 12 h, 24 h or 72 h. For cultures treated with 3-NP (diluted in EBSS and pH adjusted to 7.4 with NaOH), 3-NP was diluted in individual culture's conditioned medium before exchange and cultures left for 8 h. Brief exposure to NMDA was carried as follows. […] Cells with fragmented mitochondria and condensed chromatin by Hoechst 33342 staining were scored as dead neurons. To evaluate mitochondrial fragmentation and cell death of a large number of neurons, manual scoring was carried out of neurons grown on glass coverslips using conventional fluorescence microscopy. […]

[4] = tested on: mitochondrial morphology in cortical neurons; experiment: Mitochondrial fragmentation in neurons expressing DsRed2-Mito; assay type: cell-based, rat; conditions: Aβ 25-35 10 μM, 6 h; nanoceria 100 nM or NAC 50 μM, 3 h pretreatment
Text: To test whether nanoceria would prevent the Aβ-induced mitochondrial fragmentation, the mitochondrial morphology by fluorescence microscopy in neurons expressing DsRed2-Mito, a red fluorescent protein targeted to the mitochondrial matrix was visualized.
Cultures were either transfected with DsRed2-Mito on day 5 using LipoFectamine2000® or immunostained for microtubule-associated protein 2 (MAP2) for visualization of processes. […] For Aβ (25-25) treated cultures, Aβ (25-35) or reverse (35-25) was left to oligomerize for 24 h at 25° C. before adding to cultures at 10 μM for 6 h. Cells were fixed in 3.7% formaldehyde and 5% sucrose in PBS for 20 min at 37° C. […] Cells with fragmented mitochondria and condensed chromatin by Hoechst 33342 staining were scored as dead neurons. To evaluate mitochondrial fragmentation and cell death of a large number of neurons, manual scoring was carried out of neurons grown on glass coverslips using conventional fluorescence microscopy.
Neurons were grown on poly-Lysine coated glass cover slips as described before and transfected with DsRed2-Mito after 5 days in vitro (DIV) using Lipofectamine2000®. […] Quantification of mitochondrial fragmentation and neuronal cell death was performed as described (30). Fluorescence microscopy and image acquisition of mitochondrial morphology was performed as previously described (98).

[5] = cited from earlier work

N[C@@H](CCC(=O)N[C@@H](CS)C(=O)NCC(=O)O)C(=O)O [GSH, glutathione]
oxidation of APF by ONOO^− [1]: prevented the oxidation of APF | rate of ONOO^− decomposition ([2]; 100 mM sodium phosphate buffer pH 8.6, ONOO^− 25 μM, CeO2 NPs 100 μM, SiO2 NPs 100 μM, GSH 0.5 mM): increased | rate of ONOO^− decomposition ([2]; 100 mM sodium phosphate buffer pH 9.5, ONOO^− 25 μM, CeO2 NPs 100 μM, GSH 0.5 mM): increased

CC(=O)N[C@@H](CS)C(=O)O [NAC, N-acetyl-L-cysteine]
Aβ 25-35-induced DRP1 S616 phosphorylation [3]: abolished | cell viability / cell death after Aβ (25-35) (cortical neurons): relieved; also recorded: reduced | Aβ25-35-induced mitochondrial fragmentation (fluorescence micrographs) [4]: prevented

O=c1[nH]c(=O)c2[nH]c(=O)[nH]c2[nH]1 [uric acid]
oxidation of APF by ONOO^− [1]: prevented the oxidation of APF | rate of ONOO^− decomposition ([2]; potassium phosphate buffer pH 8.0, degassed by argon, absorbance 302 nm): increased

nitro-tyrosine
pKa [5]: 7.4
